Experimental data published in PubChem BioAssay AID1963871 (Molecular Pharmacology Branch, DTP, NCI, 2024).

System: KRAS-mutant PDC multicell tumor spheroid viability
Experiment: Anticancer human tumor 521955-158-R2-J5-PDC patient-derived pancreatic carcinoma cell line growth inhibition [KRAS2]
Settings: for IC50: curve of first compound; for viability, T/C: stronger effect = lower value
In short: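 KRAS-mutant tumor cells were grown as spheroids with HUVEC endothelial cells and human MSCs as stroma. Targeted agents were tested alone and with KRAS pathway inhibitors. Doses started at or near clinical Cmax, or 10 microM, descending half-log.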

[1] = second compound 0.1 µM, first compound 0.000316 µM
[2] = second compound 0.1 µM, first compound 0.001 µM
[3] = second compound 0.1 µM, first compound 0.00316 µM
[4] = second compound 0.1 µM, first compound 0.01 µM
[5] = second compound 0.1 µM, first compound 0.0316 µM
[6] = second compound 0.316 µM, first compound 0.000316 µM
[7] = second compound 0.316 µM, first compound 0.001 µM
[8] = second compound 0.316 µM, first compound 0.00316 µM
[9] = second compound 0.316 µM, first compound 0.01 µM
[10] = second compound 0.316 µM, first compound 0.0316 µM
[11] = second compound 1 µM, first compound 0.000316 µM
[12] = second compound 1 µM, first compound 0.001 µM
[13] = second compound 1 µM, first compound 0.00316 µM
[14] = second compound 1 µM, first compound 0.01 µM
[15] = second compound 1 µM, first compound 0.0316 µM
[16] = second compound 3.16 µM, first compound 0.000316 µM
[17] = second compound 3.16 µM, first compound 0.001 µM
[18] = second compound 3.16 µM, first compound 0.00316 µM
[19] = second compound 3.16 µM, first compound 0.01 µM
[20] = second compound 3.16 µM, first compound 0.0316 µM
[21] = second compound 10 µM, first compound 0.000316 µM
[22] = second compound 10 µM, first compound 0.001 µM
[23] = second compound 10 µM, first compound 0.00316 µM
[24] = second compound 10 µM, first compound 0.01 µM
[25] = second compound 10 µM, first compound 0.0316 µM
[26] = second compound 0.1 µM, first compound 0.1 µM
[27] = second compound 0.316 µM, first compound 0.1 µM
[28] = second compound 1 µM, first compound 0.1 µM
[29] = second compound 3.16 µM, first compound 0.1 µM
[30] = second compound 10 µM, first compound 0.1 µM
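Further: viability read after seven days of drug exposure.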

CC(=O)Nc1cccc(-n2c(=O)n(C3CC3)c(=O)c3c(Nc4ccc(I)cc4F)n(C)c(=O)c(C)c32)c1 + CC1OCC2(CCN(c3cnc(Sc4ccnc(N)c4Cl)c(N)n3)CC2)C1N
IC50 (second compound 0.1 µM): 0.146 nM | IC50 (second compound 0.316 µM): < 0.1 nM | IC50 (second compound 1 µM): < 0.1 nM | IC50 (second compound 3.16 µM): < 0.1 nM | IC50 (second compound 10 µM): < 0.1 nM | viability, T/C (second compound 0.1 µM, first compound 0.0001 µM): 59% | viability, T/C [1]: 29.4% | viability, T/C [2]: 29.3% | viability, T/C [3]: 25.3% | viability, T/C [4]: 21.4% | viability, T/C [5]: 13.1% | viability, T/C (second compound 0.316 µM, first compound 0.0001 µM): 44.9% | viability, T/C [6]: 32.9% | viability, T/C [7]: 25.4% | viability, T/C [8]: 22.7% | viability, T/C [9]: 18.1% | viability, T/C [10]: 12.4% | viability, T/C (second compound 1 µM, first compound 0.0001 µM): 40.3% | viability, T/C [11]: 35.8% | viability, T/C [12]: 26.9% | viability, T/C [13]: 24.2% | viability, T/C [14]: 16.8% | viability, T/C [15]: 9.6% | viability, T/C (second compound 3.16 µM, first compound 0.0001 µM): 40.9% | viability, T/C [16]: 32.5% | viability, T/C [17]: 25.2% | viability, T/C [18]: 21.1% | viability, T/C [19]: 15.3% | viability, T/C [20]: 12.7% | viability, T/C (second compound 10 µM, first compound 0.0001 µM): 39.9% | viability, T/C [21]: 34% | viability, T/C [22]: 23.3% | viability, T/C [23]: 18.5% | viability, T/C [24]: 15.1% | viability, T/C [25]: 11.6%

CC(C)n1nc(-c2ccc3oc(N)nc3c2)c2c(N)ncnc21 + CC1OCC2(CCN(c3cnc(Sc4ccnc(N)c4Cl)c(N)n3)CC2)C1N
IC50 (second compound 0.1 µM): 6.21 nM | IC50 (second compound 0.316 µM): 3.52 nM | IC50 (second compound 1 µM): 0.359 nM | IC50 (second compound 3.16 µM): < 0.316 nM | IC50 (second compound 10 µM): < 0.316 nM | viability, T/C [1]: 71.5% | viability, T/C [2]: 71.4% | viability, T/C [3]: 56.5% | viability, T/C [4]: 44.2% | viability, T/C [5]: 32.8% | viability, T/C [26]: 24.6% | viability, T/C [6]: 59.1% | viability, T/C [7]: 57.7% | viability, T/C [8]: 51.2% | viability, T/C [9]: 39.5% | viability, T/C [10]: 31.2% | viability, T/C [27]: 25.2% | viability, T/C [11]: 48.9% | viability, T/C [12]: 50.8% | viability, T/C [13]: 45% | viability, T/C [14]: 36.9% | viability, T/C [15]: 28.1% | viability, T/C [28]: 21.6% | viability, T/C [16]: 47.5% | viability, T/C [17]: 50.8% | viability, T/C [18]: 37.8% | viability, T/C [19]: 29.4% | viability, T/C [20]: 23.4% | viability, T/C [29]: 19.3% | viability, T/C [21]: 47.7% | viability, T/C [22]: 50.1% | viability, T/C [23]: 41.2% | viability, T/C [24]: 28.4% | viability, T/C [25]: 24.6% | viability, T/C [30]: 19.6%

CC1(C)CCC(CN2CCN(c3ccc(C(=O)NS(=O)(=O)c4ccc(NCC5CCOCC5)c([N+](=O)[O-])c4)c(Oc4cnc5[nH]ccc5c4)c3)CC2)=C(c2ccc(Cl)cc2)C1 + CC1OCC2(CCN(c3cnc(Sc4ccnc(N)c4Cl)c(N)n3)CC2)C1N
IC50 (second compound 0.1 µM): 5300 nM | IC50 (second compound 0.316 µM): 4270 nM | IC50 (second compound 1 µM): 1370 nM | IC50 (second compound 3.16 µM): < 31.6 nM | IC50 (second compound 10 µM): < 31.6 nM | viability, T/C [5]: 70.5% | viability, T/C [26]: 75.5% | viability, T/C (second compound 0.1 µM, first compound 0.316 µM): 74% | viability, T/C (second compound 0.1 µM, first compound 1 µM): 81.3% | viability, T/C (second compound 0.1 µM, first compound 3.16 µM): 89.9% | viability, T/C (second compound 0.1 µM, first compound 10 µM): 15.3% | viability, T/C [10]: 62.2% | viability, T/C [27]: 71.7% | viability, T/C (second compound 0.316 µM, first compound 0.316 µM): 51.1% | viability, T/C (second compound 0.316 µM, first compound 1 µM): 63.5% | viability, T/C (second compound 0.316 µM, first compound 3.16 µM): 69.2% | viability, T/C (second compound 0.316 µM, first compound 10 µM): 11.9% | viability, T/C [15]: 53.5% | viability, T/C [28]: 51.5% | viability, T/C (second compound 1 µM, first compound 0.316 µM): 54.1% | viability, T/C (second compound 1 µM, first compound 1 µM): 50.3% | viability, T/C (second compound 1 µM, first compound 3.16 µM): 45.7% | viability, T/C (second compound 1 µM, first compound 10 µM): 8.54% | viability, T/C [20]: 48.1% | viability, T/C [29]: 41.3% | viability, T/C (second compound 3.16 µM, first compound 0.316 µM): 35.1% | viability, T/C (second compound 3.16 µM, first compound 1 µM): 41.4% | viability, T/C (second compound 3.16 µM, first compound 3.16 µM): 46.7% | viability, T/C (second compound 3.16 µM, first compound 10 µM): 8.81% | viability, T/C [25]: 40.3% | viability, T/C [30]: 47.5% | viability, T/C (second compound 10 µM, first compound 0.316 µM): 37.2% | viability, T/C (second compound 10 µM, first compound 1 µM): 40.5% | viability, T/C (second compound 10 µM, first compound 3.16 µM): 17.1% | viability, T/C (second compound 10 µM, first compound 10 µM): 1.93%
